Experimental data as given in publication PMC8443589, “Modelling human liver fibrosis in the context of non-alcoholic steatohepatitis using a microphysiological system” (Communications Biology, 2021).
Where “and” joins values, the source holds several entries; their conditions need not be identical. Equal values may be shown once. Each block holds one compound with its values, some of them ahead of it.

Key:
[1] = Metabolic turnover (T1/2) in NASH liver microtissues in the MPS platform, LC-MS/MS; type: in vitro ADME, human; conditions: human, NASH liver microtissues grown 7 days, medium sampled across 48 h
Method: (§1) Despite many on-going clinical trials, there is still no approved treatment for NASH, but emerging data provide confidence that NASH is a pharmacologically responsive disease. […] First, we set out to determine an optimal dosing strategy for each of the treatments based on an assessment of their physicochemical properties and pharmacokinetic behaviour within the MPS device (Table 1). Non-specific binding to the MPS device was determined after a 72 h incubation with each candidate drug at 1 μM (Table 1). Both candidate drugs were calculated to have less than 0.1% loss as a consequence of non-specific binding to the MPS device (Table 1). […] Because the hepatocytes within the MPS device are metabolically competent, we evaluated the half-life for each candidate drug in NASH microtissues.
(§2) To determine the metabolic turnover of obeticholic acid and elafibranor in the MPS platform, both compounds were incubated with liver microtissues for 48 h starting at 1 µM and media samples taken at regular intervals (AdooQ Bioscience, UK). The presence of each compound in the cell culture medium was quantified by liquid chromatography-tandem mass spectrometry (LC-MS/MS). Samples were separated using a Waters Acquity UPLC system with an ACE Excel C18-AR column and analysed on a Waters TQ-S Micro mass spectrometer against quantitative standard curves. Both compounds were also assessed for protein binding in HEP-Fat media using rapid equilibrium dialysis (RED) and quantified using the same LC-MS/MS methodology.
(§3) Supplemental Figure 5 – Obeticholic acid and Elafibranor are metabolised in the NASH MPS model.
(§4) The metabolism of a) Elafibranor and b) Obeticholic acid and was assessed in PHH, KC and HSC co-cultures grown in the liver MPS platform for 7 days. Following a double media exchange the compounds were incubated with the microtissues at a starting concentration of 1 µM and media samples taken at regular intervals across 48 hours. Media samples were assessed for the concentration of compound by quantitative LC-MS.
(§5) (1 picture or pasted object on this page, not shown here)

[2] = test system: NASH liver microtissues (PHH, KC and HSC co-cultures); assay: as above; type: in vitro ADME, human; conditions: 1 µM, 48 hours
Method: as §1, §2, §3, §4, §5

[3] = test system: liver MPS NASH model (PHH, KC and HSC co-cultures, high fat); assay: Fibrosis gene expression (Human Fibrosis RT2 Profiler PCR Arrays) in liver MPS NASH model dosed with OCA or ELF; type: cell-based; conditions: 10 days, individual cultures
Method: Fig. 3 Obeticholic acid and Elafibranor both modulate inflammatory and fibrosis phenotype in liver MPS NASH model and phenotype can additionally be reversed with dietary changes. PHH, KC and HSC co-cultures were cultured in the MPS platform under high fat conditions and dosed with varying concentrations of Obeticholic acid (OCA) and Elafibranor (ELF) QD or vehicle control (control) for 10 days, following an initial 4-day pre-culture phase. a The secreted cytokine profile from liver microtissues was compared by Luminex to determine the effects of each compound on the inflammatory profile of the liver with samples analysed at day 8 and 14 of the culture. Data were normalised by Z-transformation to allow comparison of all analytes and presented as a heatmap. b The expression of fibrosis-associated genes was analysed in total RNA from control, OCA and ELF treated liver microtissues (highest concentration for each compound) using Human Fibrosis RT2 Profiler PCR Arrays. Gene expression changes are expressed as a fold change over control. c Liver microtissues were stained for collagen-type I, α-SMA, nuclei (DAPI - blue), phalloidin (green) and imaged by confocal microscopy. Representative images are shown and scale bars 200 µm. d Staining of microtissue was quantified by measuring total fluorescence intensity throughout individual microtissues, each data point represents an average of all the microtissues imaged within an MPS scaffold (min 8, max 20 microtissues). e PHH, KC and HSC co-cultures were cultured in the MPS platform under high fat or lean conditions for 30 days. Cultures either remained in the same type of media throughout or were switched at day 15 from fat media to lean media (Fat -> Lean). Cell culture medium samples were analysed for the presence of IL-6, f MCP-1, g TIMP-1, which were measured by ELISA. h Microtissues were stained with Oil-Red O to determine fat loading during culture period, total stain was quantified by absorbance at 510 nm. All datapoints shown, either as box-whisker plots highlighting mean and min-max or with error bars highlighting means ± SD. All data from a minimum of three independent cultures; statistical comparisons made to control samples unless other comparison shown.
Total RNA was extracted from liver microtissue-containing scaffolds using TRIzol® Reagent (Ambion, USA) and a chloroform phase separation. RNA was precipitated from aqueous phase samples using 100% isopropanol and RNA pellets were resuspended in dH2O. Samples were analysed by both QPCR and RNAseq. For QPCR, reverse transcription and PCR were performed using RT2 First Strand Kit and Human Fibrosis RT² Profiler™ PCR Arrays (PAHS-120Z) (Qiagen, UK), with samples analysed on a Quantstudio 6 Real-Time PCR System (Applied Biosystems, UK). Ct values from samples were compared and normalised to house-keeping gene expression. The fold-change in each transcript represented on the array plate was determined using RT2 Profiler™ PCR Array Data Analysis (v. 3.5) Web Portal (Qiagen, UK).
Liver microtissues were cultured for 4 days in HEP-FAT medium, before dosing with obeticholic acid or elafibranor. Both compounds were dissolved in DMSO, diluted in cell culture medium (final DMSO concentration ≤1%) and added to microtissues during a full medium change every two days and in addition on the intervening days compounds were spiked into the media to increase drug concentration back to desired concentrations. Cultures were maintained in the presence of the compound, for a total of 10 days in the presence or absence of TGFβ.

[4] = set-up: method as in PMID 27743502; conditions: cited from earlier work
[5] = test system: liver MPS NASH model (PHH, KC and HSC co-cultures); assay: Cue study: albumin production (ELISA); type: cell-based, human

half-life at 1 µM [1]: 960 min | metabolism in the NASH MPS model [2]: metabolised
Compound: CSc1ccc(C(=O)/C=C/c2cc(C)c(OC(C)(C)C(=O)O)c(C)c2)cc1 [Elafibranor]
CCL2 relative gene expression compared to GAPDH housekeeping gene ([3]; 65.0 uM ELF, listed as ELF): 3.92e-9 and 2.6e-9 and 6.31e-9 | CCL3 relative gene expression compared to GAPDH housekeeping gene ([3]; 65.0 uM ELF, listed as ELF): 3.39e-10 and 1.55e-10 and 3.45e-10 | CCL11 relative gene expression compared to GAPDH housekeeping gene ([3]; 65.0 uM ELF, listed as ELF): 4.99e-10 and 6.3e-10 and 6.52e-10 | CEBPB relative gene expression compared to GAPDH housekeeping gene ([3]; 65.0 uM ELF, listed as ELF): 1.2e-8 and 1.1e-8 and 2.65e-8 | CXCR4 relative gene expression compared to GAPDH housekeeping gene ([3]; 65.0 uM ELF, listed as ELF): 1.13e-9 and 7.47e-10 and 1.7e-9 | DCN relative gene expression compared to GAPDH housekeeping gene ([3]; 65.0 uM ELF, listed as ELF): 2.4e-7 and 1.65e-7 and 3.13e-7 | HGF relative gene expression compared to GAPDH housekeeping gene ([3]; 65.0 uM ELF, listed as ELF): 6.26e-10 and 2.45e-10 and 6.68e-10 | MMP1 relative gene expression compared to GAPDH housekeeping gene ([3]; 65.0 uM ELF, listed as ELF): 2.95e-9 and 8.23e-10 and 3.25e-9 | MMP9 relative gene expression compared to GAPDH housekeeping gene ([3]; 65.0 uM ELF, listed as ELF): 1.04e-8 and 2.47e-9 and 9.28e-9

half-life at 1 µM [1]: 720 min | metabolism in the NASH MPS model [2]: metabolised
Compound: CC[C@H]1[C@@H](O)[C@@H]2[C@H](CC[C@]3(C)[C@@H]([C@H](C)CCC(=O)O)CC[C@@H]23)[C@@]2(C)CC[C@@H](O)C[C@@H]12 [Obeticholic acid]
CCL2 relative gene expression compared to GAPDH housekeeping gene ([3]; 12.5 uM OCA, listed as OCA): 5.71e-9 and 9.72e-9 and 5e-9 | CCL3 relative gene expression compared to GAPDH housekeeping gene ([3]; 12.5 uM OCA, listed as OCA): 1.11e-9 and 5.96e-10 and 3.11e-10 | CCL11 relative gene expression compared to GAPDH housekeeping gene ([3]; 12.5 uM OCA, listed as OCA): 3.39e-10 and 4.66e-10 and 1.94e-10 | CEBPB relative gene expression compared to GAPDH housekeeping gene ([3]; 12.5 uM OCA, listed as OCA): 3e-8 and 1.33e-8 and 1.62e-8 | CXCR4 relative gene expression compared to GAPDH housekeeping gene ([3]; 12.5 uM OCA, listed as OCA): 2.04e-9 and 8.2e-10 and 6.3e-10 | DCN relative gene expression compared to GAPDH housekeeping gene ([3]; 12.5 uM OCA, listed as OCA): 3.44e-7 and 1.39e-7 and 1.03e-7 | HGF relative gene expression compared to GAPDH housekeeping gene ([3]; 12.5 uM OCA, listed as OCA): 1.68e-9 and 5.3e-10 and 3.89e-10 | MMP1 relative gene expression compared to GAPDH housekeeping gene ([3]; 12.5 uM OCA, listed as OCA): 9.31e-10 and 1.58e-9 and 2.05e-9 | MMP9 relative gene expression compared to GAPDH housekeeping gene ([3]; 12.5 uM OCA, listed as OCA): 1.47e-8 and 5.79e-9 and 3e-9 | Plasma protein binding [4]: >99%

Compound: TGFβ: recombinant TGF beta 1 protein (Abcam), 1 ng/ml cue
Albumin production [5]: reduced albumin production
